# Experimental data: US9423404B1, “Method of screening for an agent that enhances beige fat adipogenesis” (The Board of Trustees of the Leland Stanford Junior …, priority 2013, dated 2016)
# Legend:
# CYP24A1 = assay: RT-qPCR of CYP24A1 (24-hydroxylase), marker of calcitriol responsiveness; type: cell-based, human; conditions: H305Q mutant, 10 nM calcitriol, ex vivo
# Description: FIG. 3. […] (A) Control and HVDRR fibroblasts were treated with vehicle (0.1% ethanol) or 10 nM calcitriol for 6 hr. RT-qPCR assays were carried out for CYP24A1 a marker of calcitriol responsiveness. DM denotes double mutant with H305Q mutation in the VDR and BSCL2 mutation. […] Relative gene expression of UCP1 in WT and HVDRR fibroblasts differentiated with DIMR or DIMR plus 10 nM calcitriol for 14 days.
# Real-time RT-PCR. […] RNA was isolated using RNeasy Plus Mini Kit (Qiagen, Valencia, Calif.). cDNA was prepared using Maxima Universal First Strand cDNA Synthesis kit (Fisher Scientific, Pittsburgh, Pa.). Real time PCR was performed using the DyNAmo ColorFlash qPCR kit (Fisher Scientific). Relative changes in mRNA expression were assessed by the 2-ΔΔC(T) method and normalized to that of the reference gene glyceraldehyde phosphate dehydrogenase (GAPDH). The values from vehicle treated normal control fibroblasts were set at 1. Assays were performed in triplicate.
# [1] = tested on: differentiated human fibroblasts; assay: Lipolysis assay (glycerol release); type: cell-based; conditions: for increase in glycerol release compared to the undifferentiated cells: 10 μM isoproterenol 24 hrs
# Description: Lipolysis assay. To measure lipolysis activity, control and differentiated fibroblasts, were starved in DMEM containing 1% FBS overnight. Cells were then incubated for 24 hrs in HBSS (Hank's balanced salt solution) containing 2% fatty-acid-free BSA and 10 μM isoproterenol. The culture medium was collected for glycerol measurement using the free glycerol reagent (Sigma, St. Louis, Mo.).
Compound,induction of 24-hydroxylase (CYP24A1) expression by VDR (CYP24A1),induction of lipolysis compared to the H305Q single mutant ([1]; H305Q/BSCL2 double mutant),increase in glycerol release compared to the undifferentiated cells ([1]; HVDRR cells differentiated with DIMR),increase in glycerol release compared to the undifferentiated cells ([1]; WT control cells differentiated with DIMR)
C=C1/C(=C\C=C2/CCC[C@]3(C)[C@@H]([C@H](C)CCCC(C)(C)O)CC[C@@H]23)C[C@@H](O)C[C@@H]1O [calcitriol],rescues the induction,–,–,–
CC(C)NCC(O)c1ccc(O)c(O)c1 (stereo not shown) [isoproterenol],–,significantly less induction of lipolysis,1.5-4 fold,2.5 fold
